The text below walks through data of US7183252B2, “Indole peptidomimetics as thrombin receptor antagonists” (Ortho-McNeil Pharmaceutical, Inc., priority 1999, dated 2007).

The test system of one test is gel-filtered platelets. The test can be described thus: In vitro inhibition of thrombin-induced gel-filtered platelet aggregation. It is filed as cell-based. The note with it: human gel-filtered platelets, agonist thrombin 50 μL of 1 unit/mL, read-out: Thrmb IC50 (Thrombin-induced aggregation of gel-filtered platelets). The procedure:
In Vitro Inhibition of Thrombin-Induced Gel-Filtered Platelet Aggregation Assay
The percentage of platelet aggregation is calculated as an increase in light transmission of compound-treated platelet concentrate vs. control-treated platelet concentrate. Human blood is obtained from drug free, normal donors in tubes containing 0.13M sodium citrate. Platelet rich plasma (PRP) is collected by centrifugation of whole blood at 200×g for 10 min at 25° C. The PRP (5 mL) is gel filtered through Sepharose 2B (bed volume 50 mL), and the platelet count is adjusted to 2×10^7 platelets per sample. The following constituents are added to a siliconized cuvette: concentrated platelet filtrate and Tyrode's buffer (0.14M NaCl, 0.0027M KCl, 0.012M NaHCO3, 0.76 mM Na2HPO4, 0.0055M glucose, 2 mg/mL BSA and 5.0 mM HEPES @ pH 7.4) in an amount equal to 350 μL 50 μL of 20 mM calcium and 50 μL of the test compound. Aggregation is monitored in a BIODATA aggregometer for the 3 min following the addition of agonist (thrombin 50 μL of 1 unit/mL).
(§1) Table 7 contains IC50 values (μM) of the compounds in a thrombin receptor binding assay, and IC50 values (μM) against platelet aggregation stimulated by thrombin.

For test [1], the target named is T1, thrombin receptor (PAR-1) (Homo sapiens, UniProt P25116).
T1 construct: CHRF membranes (Jones, Biochim. Biophys. Acta 1992, 1136, 272) are thawed from −70° C; endogenous in cells; host or cells: CHRF cell membranes
T1 sequence (P25116 22-425): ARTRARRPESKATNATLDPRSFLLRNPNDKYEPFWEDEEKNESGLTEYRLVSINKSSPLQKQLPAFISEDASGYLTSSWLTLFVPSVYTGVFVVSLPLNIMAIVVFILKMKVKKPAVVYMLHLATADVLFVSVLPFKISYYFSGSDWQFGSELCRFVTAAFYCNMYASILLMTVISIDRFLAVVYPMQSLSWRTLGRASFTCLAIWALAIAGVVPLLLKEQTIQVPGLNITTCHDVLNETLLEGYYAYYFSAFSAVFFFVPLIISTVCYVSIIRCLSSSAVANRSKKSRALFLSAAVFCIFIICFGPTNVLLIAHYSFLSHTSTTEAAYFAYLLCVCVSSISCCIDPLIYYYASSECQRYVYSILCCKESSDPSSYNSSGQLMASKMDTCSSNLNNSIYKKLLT
Kind of test: In vitro thrombin receptor binding assay (CHRF membranes). The settings on record: tritiated 721-40 radioligand, read-out: Bndg IC50 (Thrombin receptor binding). The procedure: In Vitro Thrombin Receptor Binding Assay
CHRF membranes (Jones, Biochim. Biophys. Acta 1992, 1136, 272) are thawed from −70° C., centrifuged at maximum speed for 5 min, washed twice with binding buffer (50 mM HEPES containing 5 mM MgCl2 and 0.1% BSA), and re-suspended in binding buffer (25 μg/[…]). 100 μL of membranes are added to the 24-Wallac plates and delivered to the Tomtech apparatus. In a typical experiment, 6 μL of samples (from a 125 μg/mL intermediary plate, 20% DMSO) and 44 μL buffer are delivered to the plates (final conc. of compounds is 3.7 μg/mL, 0.6% DMSO). Similarly, 6 μL 20% DMSO and 44 μL buffer are delivered to both column 1 (NSB) and column 12 (TB). 10 μL Ser-pFPhe-Har-Leu-Har-Lys-Tyr-NH2 (721–40; 500 μM in deionized water) is added to column 1. 50 μL tritiated 721–40 (specific activity 46 Ci/mmol) is added to all the wells. The plates are mixed well for 20 seconds, incubated for 30 min,and then harvested with 10 mM HEPES/138 mM NaCl using the Skatron harvester. The filters (GF/C Brandel FPXLR 296) are presoaked 3 h in 0.5% polyethylenimine in HEPES/0.1M N-acetylglucosamine) are set in saran wrap and dried for 3 min in the microwave, and placed in sample bags (Wallac 1450-432). 4.5 mL scintillation fluid (Wallac, Betaplate Scint 1205-440) is added. The bags are sealed, placed in filter cassettes (Wallac 1450-104), and analyzed on the microbeta counter.
as §1

SMILES strings stand for the structures. pIC50: −log10 of the molar value. Read-outs that look alike come from different tables or passages of the source. A value given as a limit tells only on which side of the number the result lay.

`N=C(N)NCCC[C@H](NC(=O)[C@H](Cc1ccc(F)c(F)c1)NC(=O)Nc1ccc2c(CN3CCCC3)cn(Cc3ccccc3Cl)c2c1)C(=O)NCc1ccccc1` [Compound 55]: the pIC50 (in general, the IC50 on a negative log10 scale, so that one unit is a factor of ten) in the test with gel-filtered platelets (Platelet) is 6.47; in test [1], 4.95.
Taken in the same sequence, the figures for `N=C(N)NCCC[C@H](NC(=O)[C@@H](NC(=O)Nc1ccc2c(CN3CCCC3)cn(Cc3c(Cl)cccc3Cl)c2c1)C(c1ccccc1)c1ccccc1)C(=O)NCc1ccccc1` [Compound 56] were 5.42 and 4.94.
For `Cc1ccccc1Cn1cc(CN2CCCC2)c2ccc(NC(=O)N[C@@H](Cc3ccc(F)c(F)c3)C(=O)N[C@@H](CCCNC(=N)N)C(=O)NCCc3ccccc3)cc21` [Compound 57], the results for the pIC50 (in the test on gel-filtered platelets (Platelet); in test [1]) were 5.74 and 6.52, respectively.
Taken in the same sequence, the figures for `CCCCN(CCCC)Cc1cn(Cc2ccccc2C)c2cc(NC(=O)N[C@@H](Cc3cc(F)cc(F)c3)C(=O)N[C@@H](CCCNC(=N)N)C(=O)NCc3ccccc3)ccc12` [Compound 58] were below 5.00 and 5.82.
`N=C(N)NCCC[C@H](NC(=O)[C@H](Cc1ccc(F)c(F)c1)NC(=O)Nc1ccc2c(CN3CCCC3)cn(Cc3c(Cl)cccc3Cl)c2c1)C(=O)NCc1ccc(F)cc1` [Compound 59]: the pIC50 was 6.06 in the test with gel-filtered platelets (Platelet) and 6.85 in test [1].
With `N=C(N)NCCC[C@H](NC(=O)[C@H](Cc1ccc(F)c(F)c1)NC(=O)Nc1ccc2c(CN3CCCC3)cn(Cc3ccc(F)cc3)c2c1)C(=O)NC(c1ccccc1)c1ccccc1` [Compound 60], the pIC50 with gel-filtered platelets (Platelet) was 6.03; in test [1], 5.55.
Consider `COc1ccc(CNC(=O)[C@H](CCCNC(=N)N)NC(=O)[C@H](Cc2ccc(F)c(F)c2)NC(=O)Nc2ccc3c(CN4CCCC4)cn(Cc4c(Cl)cccc4Cl)c3c2)cc1` [Compound 61], for which the pIC50 in the test on gel-filtered platelets (Platelet) was 5.85; in test [1], 6.52.
For `N=C(N)NCCC[C@H](NC(=O)[C@H](Cc1ccc(F)c(F)c1)NC(=O)Nc1ccc2c(CN3CCCC3)cn(Cc3c(Cl)cccc3Cl)c2c1)C(=O)NCc1ccncc1` [Compound 62], in that order: 5.90 and 7.52.
As for `N=C(N)NCCC[C@H](NC(=O)[C@H](Cc1ccc(Br)cc1)NC(=O)Nc1ccc2c(CN3CCCCC3)cn(Cc3c(Cl)cccc3Cl)c2c1)C(=O)NCc1ccccc1` [Compound 63], the pIC50 with gel-filtered platelets (Platelet) was 6.15; in test [1], 6.89.
`Cc1ccccc1Cn1cc(CN2CCCC2)c2ccc(NC(=O)N[C@@H](Cc3ccc(F)c(F)c3)C(=O)N[C@@H](CCCNC(=N)N)C(=O)NCCc3ccccc3Cl)cc21` [Compound 64]: the figures for the pIC50 (in the test on gel-filtered platelets (Platelet); in test [1]) were 5.66 and 6.64, respectively.
For `COc1ccccc1CCNC(=O)[C@H](CCCNC(=N)N)NC(=O)[C@H](Cc1ccc(F)c(F)c1)NC(=O)Nc1ccc2c(CN3CCCC3)cn(Cc3ccccc3C)c2c1` [Compound 65], in that order: 6.00 and 6.66.
Taken in the same sequence, the figures for `NCCC[C@H](NC(=O)[C@H](Cc1ccc(F)c(F)c1)NC(=O)Nc1ccc2c(CN3CCCC3)cn(Cc3c(Cl)cccc3Cl)c2c1)C(=O)NCc1ccccc1` [Compound 66] were 6.62 and 5.96.
Taken in the same sequence, the figures for `CC(C)NCCCC[C@H](NC(=O)[C@H](Cc1ccc(F)c(F)c1)NC(=O)Nc1ccc2c(CN3CCCCC3)cn(Cc3c(Cl)cccc3Cl)c2c1)C(=O)NCc1ccccc1` [Compound 67] were 6.38 and 6.35.
In the case of `O=C(Nc1ccc2c(CN3CCCC3)cn(Cc3c(Cl)cccc3Cl)c2c1)N[C@@H](Cc1ccc(F)c(F)c1)C(=O)N[C@@H](CCCCNC(=O)c1cccnc1)C(=O)NCc1ccccc1` [Compound 68], the pIC50 in the test with gel-filtered platelets (Platelet) was 5.33; in test [1] it was 5.19.
As for `N=C(N)NCCC[C@@H](NC(=O)[C@H](Cc1ccc(F)c(F)c1)NC(=O)Nc1ccc2c(CN3CCCC3)cn(Cc3c(Cl)cccc3Cl)c2c1)C(=O)NCc1ccccc1` [Compound 69], the pIC50 in the test with gel-filtered platelets was 6.51; in test [1], 6.21.
Take `NCCCC[C@H](NC(=O)[C@H](Cc1ccc(F)c(F)c1)NC(=O)Nc1ccc2c(CN3CCCC3)cn(Cc3c(Cl)cccc3Cl)c2c1)C(=O)NCc1ccccc1` [Compound 70]: the pIC50 in the test on gel-filtered platelets (Platelet) was 6.51; in test [1], 6.49.
For `CC(=O)NCCCC[C@H](NC(=O)[C@H](Cc1ccc(F)c(F)c1)NC(=O)Nc1ccc2c(CN3CCCC3)cn(Cc3c(Cl)cccc3Cl)c2c1)C(=O)NCc1ccccc1` [Compound 71], in that order: 6.26 and 5.52.
Regarding `O=C(Nc1ccc2c(CN3CCCC3)cn(Cc3c(Cl)cccc3Cl)c2c1)N[C@@H](Cc1ccc(F)c(F)c1)C(=O)N[C@@H](Cc1c[nH]cn1)C(=O)NCc1ccccc1` [Compound 72], the pIC50 in the test with gel-filtered platelets (Platelet) was 6.34; in test [1] it was 5.89.
Taken in the same sequence, the figures for `CCCCCCCCNC(=O)[C@H](CCCNC(=N)N)NC(=O)[C@H](Cc1ccc(F)c(F)c1)NC(=O)Nc1ccc2c(CN3CCCCC3)cn(Cc3ccc(F)cc3)c2c1` [Compound 73] were 5.62 and 5.12.
For `N=C(N)NCCC[C@H](NC(=O)[C@H](Cc1ccc(F)c(F)c1)NC(=O)Nc1ccc2c(CN3CCCC3)cn(CC3CCCCC3)c2c1)C(=O)NCc1ccccc1` [Compound 74], in that order: 5.54 and 6.25.
For `CCN(CC)Cc1cn(CCCc2ccccc2)c2cc(NC(=O)N[C@@H](Cc3ccc(F)c(F)c3)C(=O)N[C@@H](CCCNC(=N)N)C(=O)NCc3ccccc3)ccc12` [Compound 75], in that order: 5.66 and 6.64.
`CCN(CC)Cc1cn(CCc2ccc(F)cc2)c2cc(NC(=O)N[C@@H](Cc3ccc(F)c(F)c3)C(=O)N[C@@H](CCCNC(=N)N)C(=O)NCc3ccccc3)ccc12` [Compound 76]: the pIC50 was 5.96 with gel-filtered platelets (Platelet) and 6.70 in test [1].
On to `NC(=O)NCCC[C@H](NC(=O)[C@H](Cc1cccc(F)c1)NC(=O)Nc1ccc2c(CN3CCCC3)cn(Cc3c(Cl)cccc3Cl)c2c1)C(=O)NCc1ccccc1` [Compound 77], for which the pIC50 in the test with gel-filtered platelets (Platelet) was 4.53; in test [1] it was 6.21.
Turning to `NCC[C@H](NC(=O)[C@H](Cc1ccc(Cl)cc1)NC(=O)Nc1ccc2c(CN3CCCC3)cn(Cc3c(Cl)cccc3Cl)c2c1)C(=O)NCc1ccccc1` [Compound 78], the pIC50 was 5.89 in the test on gel-filtered platelets (Platelet) and 5.82 in test [1].
`NC[C@H](NC(=O)[C@H](Cc1ccc(Cl)cc1)NC(=O)Nc1ccc2c(CN3CCCC3)cn(Cc3c(Cl)cccc3Cl)c2c1)C(=O)NCc1ccccc1` [Compound 79]: the pIC50 in the test with gel-filtered platelets (Platelet) is 5.89; in test [1], 6.77.
Taken in the same sequence, the figures for `N=C(N)NCCC[C@H](NC(=O)Nc1ccc2c(CN3CCCC3)cn(Cc3c(Cl)cccc3Cl)c2c1)C(=O)N[C@@H](Cc1ccc(F)c(F)c1)C(=O)NCc1ccccc1` [Compound 80] were 4.95 and 5.23.
Regarding `N=C(N)NCCC[C@H](NC(=O)[C@H](Cc1ccc(F)c(F)c1)NC(=O)Nc1ccc2c(CN3CCCC3)cn(Cc3c(Cl)cccc3Cl)c2c1)C(=O)NCCCCCN` [Compound 81], the figures for the pIC50 (with gel-filtered platelets (Platelet); in test [1]) were 6.39 and 7.15, respectively.
Taken in the same sequence, the figures for `NC(N)=NCCC[C@H](NC(=O)[C@H](Cc1ccc(F)c(F)c1)NC(=O)Nc1ccc2c(CN3CCCC3)cn(Cc3ccc(F)cc3)c2c1)C(=O)NCc1ccco1` [Compound 82] were 5.82 and 6.51.
